Experiments:
IKZF2-CRBN [1] = target: T1, IKZF2-CRBN (Homo sapiens, UniProt Q96SW2+Q9UKS7); test: glue screening assay (tripartite split-GFP fluorescence), GFP11-tagged IKZF2 and GFP10-tagged CRBN; assay type: binding; settings: protein mix GFP1-9, GFP11-IKZF2, IKZF2-GFP11, GFP10-CRBN, time-course, FIG. 5
Experimental: In another version of the assay, the glue screening assay mixture is assembled in a volume of 2 μL assay buffer (50 mM HEPES buffer, pH 7.5, 150 mM KCl, 4 mM DTT, 0.1 mg/mL BSA, 0.25 mM octyl-beta-glucopyranoside, 5% glycerol with 0.3 μg GFP1-9, 0.05 μg of GFP11-tagged IKZF2, and 0.3 μg GFP10-tagged CRBN. Various variations of the buffer provide consistent signal in this assay (0.1-1 mg/mL BSA, 0-10% glycerol, 0-1 mM octyl-beta-glucopyranoside). Similar to the previous version, two different versions of GFP11-tagged IKZF2 are tested with GFP11 fused to N- and C-termini of IKZF2 (GFP11-IKZF2 and IKZF2-GFP11, respectively). Likewise, two different versions of GFP10-tagged CRBN are tested: GFP10 fused to the N-terminus of CRBN (GFP10-CRBN) and GFP10 fused to the C-terminus of CRBN (CRBN-GFP10). Concentrations correspond to 5 μM of GFP (1-9), 1.25 μM of each of the IKZF2 constructs and 0.5 μM of each of the two CRBN constructs. Concentrations of the IKZF2 and CRBN proteins were optimized for best signal to background by titrating the proteins against each other.
For primary screens, these five different proteins (GFP1-9, GFP11-IKZF2, IKZF2-GFP11, GFP10-CRBN, and CRBN-GFP10) are combined in the assay buffer and added to the plates containing different compound pools. […]

IKZF2-CRBN [2] = target: T1, IKZF2-CRBN; settings: stated as known; cited from earlier work
RBM39 and DCAF15 = RBM39 and DCAF15 (Homo sapiens, UniProt Q14498+Q66K64); settings: stated as known; cited from earlier work
Sequence of RBM39 and DCAF15 (Q14498 whole entry, species assumed): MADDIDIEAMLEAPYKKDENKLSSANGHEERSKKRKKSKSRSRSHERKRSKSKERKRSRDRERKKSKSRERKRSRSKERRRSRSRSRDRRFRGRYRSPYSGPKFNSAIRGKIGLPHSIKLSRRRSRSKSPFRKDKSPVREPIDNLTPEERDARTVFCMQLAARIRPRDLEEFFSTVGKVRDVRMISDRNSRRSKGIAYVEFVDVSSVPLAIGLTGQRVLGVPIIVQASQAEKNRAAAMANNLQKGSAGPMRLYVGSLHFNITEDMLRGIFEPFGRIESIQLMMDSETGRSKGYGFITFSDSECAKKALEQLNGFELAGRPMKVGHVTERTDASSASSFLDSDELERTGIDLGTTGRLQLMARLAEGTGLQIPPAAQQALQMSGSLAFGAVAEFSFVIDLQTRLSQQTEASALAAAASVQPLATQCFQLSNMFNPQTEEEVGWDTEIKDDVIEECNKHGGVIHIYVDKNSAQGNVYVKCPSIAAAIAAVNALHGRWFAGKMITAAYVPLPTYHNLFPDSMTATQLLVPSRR
Sequence of RBM39 and DCAF15 (Q66K64 whole entry, species assumed): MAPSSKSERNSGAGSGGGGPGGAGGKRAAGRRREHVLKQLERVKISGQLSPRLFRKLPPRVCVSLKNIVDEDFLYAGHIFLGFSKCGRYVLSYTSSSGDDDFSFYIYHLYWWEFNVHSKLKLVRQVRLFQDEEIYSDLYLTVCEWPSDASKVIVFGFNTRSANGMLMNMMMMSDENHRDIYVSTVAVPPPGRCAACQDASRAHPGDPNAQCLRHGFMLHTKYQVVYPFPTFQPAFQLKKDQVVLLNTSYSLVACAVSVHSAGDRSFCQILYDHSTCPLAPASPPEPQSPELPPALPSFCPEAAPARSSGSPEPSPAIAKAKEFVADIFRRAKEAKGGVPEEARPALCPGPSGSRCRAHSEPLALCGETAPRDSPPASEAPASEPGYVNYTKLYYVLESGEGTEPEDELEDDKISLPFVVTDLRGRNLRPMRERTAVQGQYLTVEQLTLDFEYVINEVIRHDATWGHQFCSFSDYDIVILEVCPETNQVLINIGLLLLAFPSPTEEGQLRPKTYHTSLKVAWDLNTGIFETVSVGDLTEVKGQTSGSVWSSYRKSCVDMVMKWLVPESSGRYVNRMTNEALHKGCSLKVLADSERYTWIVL

T1 sequence (Q9UKS7 whole entry, the tested form may be a part): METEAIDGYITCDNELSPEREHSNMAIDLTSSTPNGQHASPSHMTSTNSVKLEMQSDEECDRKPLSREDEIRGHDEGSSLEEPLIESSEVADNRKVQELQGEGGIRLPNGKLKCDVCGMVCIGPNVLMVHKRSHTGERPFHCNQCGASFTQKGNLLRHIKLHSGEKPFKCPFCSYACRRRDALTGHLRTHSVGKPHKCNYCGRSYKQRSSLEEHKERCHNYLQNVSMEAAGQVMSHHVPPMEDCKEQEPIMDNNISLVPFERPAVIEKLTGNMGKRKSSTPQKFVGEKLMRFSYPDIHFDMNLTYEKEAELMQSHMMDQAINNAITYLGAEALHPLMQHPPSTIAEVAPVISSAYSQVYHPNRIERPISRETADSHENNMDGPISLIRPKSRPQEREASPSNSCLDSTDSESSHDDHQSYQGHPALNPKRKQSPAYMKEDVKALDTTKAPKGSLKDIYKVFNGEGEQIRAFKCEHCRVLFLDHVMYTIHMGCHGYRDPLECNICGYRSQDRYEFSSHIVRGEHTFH
T1 sequence (Q96SW2 whole entry, the tested form may be a part): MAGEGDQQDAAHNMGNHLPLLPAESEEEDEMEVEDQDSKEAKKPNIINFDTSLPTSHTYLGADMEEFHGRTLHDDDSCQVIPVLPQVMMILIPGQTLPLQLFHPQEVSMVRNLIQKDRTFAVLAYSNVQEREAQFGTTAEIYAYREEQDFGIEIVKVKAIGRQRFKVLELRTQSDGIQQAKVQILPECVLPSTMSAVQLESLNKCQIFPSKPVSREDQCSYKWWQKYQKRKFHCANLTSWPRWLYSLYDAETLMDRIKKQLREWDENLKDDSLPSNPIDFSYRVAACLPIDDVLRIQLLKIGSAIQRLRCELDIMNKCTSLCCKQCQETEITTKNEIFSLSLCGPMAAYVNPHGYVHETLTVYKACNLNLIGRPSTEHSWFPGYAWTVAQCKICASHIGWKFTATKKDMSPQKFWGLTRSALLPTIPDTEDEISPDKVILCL

| SMILES | GFP signal over time compared to the DMSO control (IKZF2-CRBN [1]) | glue activity for IKZF2-CRBN protein pair (known) (IKZF2-CRBN [2]) | glue activity for protein pair RBM39 and DCAF15 (known) (RBM39 and DCAF15) |
| --- | --- | --- | --- |
| Nc1ccc(S(=O)(=O)Nc2cnc3c(Cl)cccc3n2)cc1 | indistinguishable from the DMSO control | devoid of glue activity | known glues |
| NS(=O)(=O)c1ccc(S(=O)(=O)Nc2cccc3c(Cl)c[nH]c23)cc1 [Indisulam] | indistinguishable from the DMSO control | devoid of glue activity | known glues |
